Converted amounts (≈) assume the structure as drawn. A value given as a limit tells only on which side of the number the result lay.

In the first assay the test system is J774.2. Briefly: Cytotoxicity against mouse J774.2 cells. It counts as functional.
Conditions: not given
Take `CC(=O)O[C@H]1C(=O)[C@@]2(C)[C@H]([C@H](OC(=O)c3ccccc3)[C@]3(O)C[C@H](OC(=O)[C@H](OC(C)=O)[C@@H](NC(=O)c4ccccc4)c4ccccc4)C(C)=C1C3(C)C)[C@]1(OC(C)=O)CO[C@@H]1C[C@@H]2O`: the ED50 is 3 ×10⁻⁷ M.
Same read-out and setting: with `CC(=O)O[C@H]1C(=O)[C@]2(C)[C@@H](OC(C)=O)C[C@H]3OC[C@@]3(OC(C)=O)[C@H]2[C@H](OC(=O)c2ccccc2)[C@]2(O)C[C@H](OC(=O)[C@H](O)[C@@H](NC(=O)c3ccccc3)c3ccccc3)C(C)=C1C2(C)C` [PACLITAXEL C7 ACETYLCARBOXYLIC ACID ESTER] the figure was 9 ×10⁻⁸ M.

The species named for the next assay is Bos taurus. Briefly: Inhibition of bovine brain tubulin assembly assessed as drug level causing decrease in tubulin depolymerization rate.
Conditions: not given
As to `CC(=O)O[C@H]1C(=O)[C@]2(C)[C@@H](OC(=O)c3ccc(C4(C(F)(F)F)N=N4)cc3)C[C@H]3OC[C@@]3(OC(C)=O)[C@H]2[C@H](OC(=O)c2ccccc2)[C@]2(O)C[C@H](OC(=O)[C@H](O)[C@@H](NC(=O)c3ccccc3)c3ccccc3)C(C)=C1C2(C)C`, the ID50 is 340 nM.
As to `CC(=O)O[C@H]1C(=O)[C@]2(C)[C@@H](OC(=O)c3ccccc3)C[C@H]3OC[C@@]3(OC(C)=O)[C@H]2[C@H](OC(=O)c2ccccc2)[C@]2(O)C[C@H](OC(=O)[C@H](O)[C@@H](NC(=O)c3ccccc3)c3ccccc3)C(C)=C1C2(C)C`, the ID50 came out at 170 nM.
On to `CC(=O)O[C@H]1C(=O)[C@@]2(C)[C@H]([C@H](OC(=O)c3ccccc3)[C@]3(O)C[C@H](OC(=O)[C@H](O)[C@@H](NC(=O)c4ccccc4)c4ccccc4)C(C)=C1C3(C)C)[C@]1(OC(C)=O)CO[C@@H]1C[C@@H]2O`, for which the ID50 came out at 100 nM.

The subject of another assay is KB. Briefly: Cytotoxicity against human KB cells. Format: functional.
Conditions: not given
`CC(=O)O[C@H]1C(=O)[C@]2(C)[C@H](O)C[C@H]3OC[C@@]3(OC(C)=O)[C@H]2[C@H](OC(=O)c2ccccc2)[C@]2(O)C[C@H](OC(=O)[C@H](O)[C@@H](NC(=O)c3ccccc3)c3ccccc3)C(C)=C1C2(C)C` came in with an ED50 of 3 ×10⁻⁵ ug/ml.

The same assay, now with this note: Homo sapiens, KB; read-out: ED50 (the source's name).
Regarding `CC(=O)O[C@H]1C(=O)[C@]2(C)C(=O)C[C@H]3OC[C@@]3(OC(C)=O)[C@H]2[C@H](OC(=O)c2ccccc2)[C@]2(O)C[C@H](OC(=O)C(=O)[C@@H](NC(=O)c3ccccc3)c3ccccc3)C(C)=C1C2(C)C`, the EC50 came out at 12 µg/mL (≈ 14.1 µM).
Turning to `CC(=O)O[C@H]1C[C@H]2OC[C@@]2(OC(C)=O)[C@H]2[C@H](OC(=O)c3ccccc3)[C@]3(O)C[C@H](OC(=O)[C@H](OC(C)=O)[C@@H](NC(=O)c4ccccc4)c4ccccc4)C(C)=C([C@@H](O)C(=O)[C@]12C)C3(C)C`, the EC50 was less than 0.01 µg/mL.
On the same count and under the same terms, as for `CC(=O)O[C@H]1C(=O)[C@]2(C)C(=O)C[C@H]3OC[C@@]3(OC(C)=O)[C@H]2[C@H](OC(=O)c2ccccc2)[C@]2(O)C[C@H](OC(=O)[C@H](O)[C@@H](NC(=O)c3ccccc3)c3ccccc3)C(C)=C1C2(C)C`, the figure is 0.5 µg/mL (≈ 0.587 µM).
Consider `CC(=O)OC[C@@]1(O)[C@H]2[C@H](OC(=O)c3ccccc3)[C@]3(O)C[C@H](OC(=O)[C@H](O)[C@@H](NC(=O)c4ccccc4)c4ccccc4)C(C)=C([C@@H](OC(C)=O)C(=O)[C@]2(C)[C@@H](O)C[C@@H]1O)C3(C)C`, for which the EC50 came to 0.2 µg/mL (≈ 0.229 µM).
The same measure, in the same setting: as for `CC(=O)O[C@H]1C(=O)[C@@H](C)C([C@@]2(OC(C)=O)CCC(=O)OC2)[C@H](OC(=O)c2ccccc2)[C@]2(O)C[C@H](OC(=O)[C@H](O)[C@@H](NC(=O)c3ccccc3)c3ccccc3)C(C)=C1C2(C)C` (stereo partly specified), the figure is 2 µg/mL (≈ 2.34 µM); as for `CC(=O)O[C@H]1C(=O)[C@]2(C)[C@@H](OC(C)=O)C[C@H]3OC[C@@]3(OC(C)=O)[C@H]2[C@H](OC(=O)c2ccccc2)[C@]2(O)C[C@H](OC(=O)[C@H](OC(C)=O)[C@@H](NC(=O)c3ccccc3)c3ccccc3)C(C)=C1C2(C)C`, 0.03 µg/mL (≈ 0.032 µM); as for `CC(=O)O[C@@]12CO[C@@H]1C[C@H](O)[C@@]1(C)C(=O)C(=O)C3=C(C)[C@@H](OC(=O)[C@H](O)[C@@H](NC(=O)c4ccccc4)c4ccccc4)C[C@@](O)([C@@H](OC(=O)c4ccccc4)[C@H]21)C3(C)C`, 0.02 µg/mL (≈ 0.0247 µM).
Still for that read-out and setting: with `CC(=O)O[C@@]12CO[C@@H]1C[C@H](O)[C@@]1(C)C(=O)[C@H](O)C3=C(C)[C@@H](O)C[C@@](O)([C@@H](OC(=O)c4ccccc4)[C@H]21)C3(C)C` the figure was 1 µg/mL (≈ 1.84 µM); with `C=C(C)[C@@]12C[C@H](OC(=O)[C@H](OC(C)=O)[C@@H](NC(=O)c3ccccc3)c3ccccc3)C(C)=C1[C@@H](OC(C)=O)C(=O)[C@]1(C)[C@@H](OC(C)=O)C[C@H](OC(C)=O)[C@@](O)(COC(C)=O)[C@H]1[C@@H]2OC(=O)c1ccccc1`, 2.5 µg/mL (≈ 2.55 µM).
Same read-out and setting: with `C=C1[C@@H](O)C[C@@H](OC(C)=O)[C@@]2(C)[C@@H](OC(C)=O)[C@H](OC(C)=O)C3=C(C)[C@@H](OC(C)=O)C[C@@](O)([C@@H](OC(C)=O)[C@H]12)C3(C)C` [DECINNAMOYLTAXININE] the figure was 28 µg/mL (≈ 47.1 µM).

The values are drawn from ChEMBL document CHEMBL1151135, “The Chemistry of Taxol, a Clinically Useful Anticancer Agent” (1990).
